Data reported in patent US20170296566A9, “METHODS AND COMPOSITIONS FOR TREATING AND/OR PREVENTING MUCOSITIS” (GLYCOMIMETICS, INC., priority 2013, published 2017).

Target: T1, E-selectin (Homo sapiens, UniProt P16581)
T1 construct: fused on or other part: Immunoglobulin (Ig) portion fused to E-selectin as a handle for immobilisation
T1 sequence (P16581 22-175 limits assumed): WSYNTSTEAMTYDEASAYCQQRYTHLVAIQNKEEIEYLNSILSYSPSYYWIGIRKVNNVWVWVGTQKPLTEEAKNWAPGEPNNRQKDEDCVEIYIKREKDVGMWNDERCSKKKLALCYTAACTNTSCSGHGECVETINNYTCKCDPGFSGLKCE
Assay: E-selectin competitive binding assay (inhibition of sLe^a binding to immobilized E-selectin/Ig chimera)
Settings: biotinylated sLe^a polyacrylamide with streptavidin/HRP, TMB, 450 nm, read-out: IC50 (μM), E-Selectin Antagonist Activity
Method: The inhibition assay to screen for and characterize glycomimetic antagonists of E-selectin is a competitive binding assay, which allows the determination of IC50 values. E-selectin/Ig chimera was immobilized in 96 well microtiter plates by incubation at 37° C. for 2 hours. To reduce nonspecific binding, bovine serum albumin was added to each well and incubated at room temperature for 2 hours. The plate was washed and serial dilutions of the test compounds were added to the wells in the presence of conjugates of biotinylated, sLe^a polyacrylamide with streptavidin/horseradish peroxidase and incubated for 2 hours at room temperature.
To determine the amount of sLe^a bound to immobilized E-selectin after washing, the peroxidase substrate, 3,3′,5,5′ tetramethylbenzidine (TMB) was added. After 3 minutes, the enzyme reaction was stopped by the addition of H3PO4, and the absorbance of light at a wavelength of 450 nm was determined.
In addition to reporting the absolute IC50 value as measured above, relative IC50 values (rIC50) are determined by a ratio of the IC50 measured for the test compound to that of an internal control (reference) stated for each assay.

Compound | IC50
CCC1CC(C(=O)NCCNC(=O)c2nc(C)cs2)C[C@@H](O[C@@H]2OC(CO)[C@H](O)C(O[C@@H](CC3CCCCC3)C(=O)O)C2NC(C)=O)C1OC1O[C@@H](C)C(O)C(O)[C@@H]1O (some centres unmarked) [Compound 28] | < 4 µM
CCC1CC(C(=O)OC)C[C@@H](O[C@@H]2OC(CO)[C@H](O)C(O[C@@H](CC3CCCCC3)C(=O)O)C2NC(=O)C(F)(F)F)C1OC1O[C@@H](C)C(O)C(O)[C@@H]1O (some centres unmarked) [Compound 27] | < 4 µM
CCC1CC(C(=O)NCCNC(=O)CCOCCOCCOCCOCCOCCOCCOCCOCCOCCOCCOCCOC)CC(OC2OC(CO)C(O)C(OC(CC3CCCCC3)C(=O)N(C)C)C2NC(C)=O)C1OC1OC(C)C(O)C(O)C1O (centres unmarked) [Compound 45] | < 4 µM
CCC1CC(C(=O)OC)C[C@@H](O[C@@H]2O[C@@H](CO)[C@H](O)C(O[C@@H](CC3CCCCC3)C(=O)O)C2NC(C)=O)[C@@H]1OC1O[C@@H](C)[C@H](O)C(O)[C@@H]1O (some centres unmarked) [Compound 22] | < 4 µM
CCC1CC(C(=O)NCCNC(=O)Cc2cc(=O)oc3cc(O)ccc23)C[C@@H](O[C@@H]2OC(CO)[C@H](O)C(O[C@@H](CC3CCCCC3)C(=O)O)C2NC(C)=O)C1OC1O[C@@H](C)C(O)C(O)[C@@H]1O (some centres unmarked) [Compound 29] | < 4 µM
